Laboratory results as given in paper PMC7456963, “HPLC-Based Activity Profiling for Antiprotozoal Compounds in Croton gratissimus and Cuscuta hyalina” (Frontiers in Pharmacology, 2020).
Read-outs that look alike come from different tables or passages of the source.

How the values were obtained:
[1] = test system: P. falciparum NF54 erythrocytic stages; test: Activity against Plasmodium falciparum (3H-hypoxanthine incorporation); type: cell-based; conditions: for Selectivity index (SI): IC50 in L6 cells divided by IC50 in P. falciparum: L6 cells vs P. falciparum NF54; for IC50: mean ± absolute deviation
Description: In vitro activity against the erythrocytic stages of P. falciparum was determined using a ^3H-hypoxanthine incorporation assay ([Desjardins et al., 1979]), using the drug sensitive NF54 strain ([Ponnudurai et al., 1981]). Compounds were dissolved in DMSO at 10 mg/ml and further diluted in medium before addition to parasite cultures incubated in RPMI 1640 medium without hypoxanthine, supplemented with HEPES (5.94 g/L), NaHCO3 (2.1 g/L), neomycin (100 U/ml), Albumax^R (5 g/L), and washed human red cells A^+ at 2.5% haematocrit (0.3% parasitemia). Serial drug dilutions of 11 three-fold dilution steps covering a range from 100 to 0.002 μg/ml were prepared. The 96-well plates were incubated in a humidified atmosphere at 37°C; 4% CO2, 3% O2, 93% N2. After 48 h, 50 μl of ^3H-hypoxanthine (=0.5 μCi) was added to each well of the plate. The plates were incubated for a further 24 h under the same conditions. The plates were then harvested with a Betaplate™ cell harvester (Wallac, Zurich, Switzerland), the red blood cells transferred onto a glass fibre filter, and lysed with distilled water. The dried filters were inserted into a plastic foil with 10 ml of scintillation fluid and counted in a Betaplate™ liquid scintillation counter (Wallac, Zurich, Switzerland). IC50 values were calculated from sigmoidal inhibition curves by linear regression using Microsoft Excel. Chloroquine (Sigma C6628) was used as control. Assays were performed in two independent replicates at least.

[2] = Cytotoxicity to macrophages determined in parallel to the intramacrophage assay; type: cell-based; conditions: CDI, surviving, uninfected mouse peritoneal macrophages
Description: (§1) Macrophages were isolated from the mouse (CDI) peritoneal cavity ([Zhang et al., 2008]) using 2% starch solution as eliciting agent injected 2 day prior to cell harvest. Animal work was carried out according to the rules and regulations for the protection of animal rights (“Tierschutzverordnung”) of the Swiss “Bundesamt für Veterinärwesen” (License number 2374). Mouse peritoneal macrophages (4 × 10^4 in 100 µL RPMI 1640 medium with 10% heat-inactivated FBS) were seeded into wells of a 96-well plate. After 24 h, 2 × 10^5 amastigote L. donovani in 100 µL were added. The amastigotes were taken from an axenic amastigote culture grown at pH 5.4. The medium containing free amastigote forms was removed after 24 h and replaced with fresh medium. The washing step was repeated and afterward the serial drug dilution was prepared with at least 6 dilution steps. Compounds were dissolved in DMSO at 10 mg/ml and further diluted in medium. After 96 h of incubation at 37°C under a 5% CO2 atmosphere, the medium was removed, and cells were fixed by adding 50 µl 4% formaldehyde solution followed by a staining with a 5 µM DRAQ5 solution. Plates were imaged in ImageXpress XLS (MD) microscope using a 20× air objective (635 nm excitation: 690/50 emission). 9 images were collected per well. Automated image analysis was performed with a script developed on Meta Xpress Software (MD). Three outputs were provided for each well: i) number of host cell nuclei; ii) numbers of infected and non-infected host cells; iii) number of parasite nuclei per infected host cell. The IC50 values were calculated based on the infection rate and the numbers of intracellular amastigotes. The cytotoxicity to macrophages was determined in parallel, and IC50 values were calculated based on the numbers of surviving, uninfected macrophages. Miltefosine was used as control. Assays were performed in two independent replicates at least.

[3] = test system: T. b. rhodesiense STIB 900 bloodstream forms; test: Activity against Trypanosoma brucei rhodesiense STIB900 (resazurin); type: cell-based; conditions: for Selectivity index (SI): IC50 in L6 cells divided by IC50 in T. b. rhodesiense: L6 cells vs T. b. rhodesiense STIB 900; for IC50: Trypanosoma brucei, 70 h, STIB 900 bloodstream forms, 70 h + resazurin, mean ± absolute deviation
Description: The stock was originally isolated from a patient and adapted to axenic culture conditions after several mouse passages and cloned. Minimum Essential Medium (50 µl) supplemented with 25 mM HEPES, 1 g/L additional glucose, 1% MEM non-essential amino acids (100×), 0.2 mM 2-mercaptoethanol, 1 mM Na-pyruvate ([Baltz et al., 1985]) and 15% heat inactivated horse serum was added to each well of a 96-well microtiter plate. Serial drug dilutions of eleven 3-fold dilution steps covering a range from 100 to 0.002 μg/ml were prepared. Then 4 × 10^3 bloodstream forms of T. b. rhodesiense STIB 900 in 50 µL were added to each well and the plate incubated for 70 h at 37°C and under a 5% CO2 atmosphere. 10 µL resazurin solution (resazurin, 12.5 mg in 100 ml double-distilled water) was then added to each well and incubation continued for a further 2–4 h ([Räz et al., 1997]). Plates were read with a Spectramax Gemini XS microplate fluorometer (Molecular Devices Cooperation, Sunnyvale, CA, USA) using an excitation wavelength of 536 nm and an emission wavelength of 588 nm. […] Melarsoprol (Arsobal Sanofi-Aventis, received from WHO) was used as control. Assays were performed in two independent replicates at least.

[4] = test system: L. donovani amastigotes in mouse peritoneal macrophages; test: Activity against Leishmania donovani intramacrophage amastigotes (high-content imaging); type: cell-based; conditions: Leishmania donovani, Peritoneal macrophage; amastigotes in mouse peritoneal macrophages, 96 h; read-out: IC50 L. donovani Intramacrophage
Description: as §1

[5] = test system: L. donovani strain MHOM/ET/67/L82 axenic amastigotes; test: Activity against Leishmania donovani axenic amastigotes (resazurin); type: cell-based; conditions: for Selectivity index (SI): IC50 in L6 cells divided by IC50 in L. donovani axenic amastigotes: L6 cells vs axenic L. donovani; for IC50: Leishmania donovani, pH 5.4, axenic amastigotes, MHOM/ET/67/L82, pH 5.4, 70 h + 2 h resazurin, mean ± absolute deviation, at least two replicates, read-out: IC50 L. donovani Axenic
Description: Amastigotes of L. donovani strain MHOM/ET/67/L82 were grown under an atmosphere of 5% CO2 in air in axenic culture at 37°C in SM medium ([Cunningham, 1977]) at pH 5.4 supplemented with 10% heat-inactivated fetal bovine serum. 50 µL of culture medium was added in the wells of a 96-well plate and serial drug dilutions of eleven three-fold dilution steps covering a final range from 100 to 0.002 μg/ml were prepared. 50 µL culture medium with 2 × 10^5 amastigotes from axenic culture were added to each well. After 70 h of incubation the plates were inspected under an inverted microscope to assure growth of the controls and sterile conditions. 10 μl of resazurin (12.5 mg resazurin dissolved in 100 ml distilled water) were added to each well and the plates incubated for another 2 h. Then the plates were read with a Spectramax Gemini XS microplate fluorometer (Molecular Devices Cooperation, Sunnyvale, CA, USA) using an excitation wavelength of 536 nm and an emission wavelength of 588 nm. Data were analyzed using the software Softmax Pro (Molecular Devices Cooperation, Sunnyvale, CA, USA). Decrease of fluorescence (= inhibition) was expressed as percentage of the fluorescence of untreated control cultures and plotted against the drug concentrations. From the sigmoidal inhibition curves the IC50 values were calculated. Miltefosine was used as positive control drug. Assays were performed in two independent replicates at least.

[6] = In vitro cytotoxicity with L-6 cells (resazurin); type: cell-based, rat; conditions: rat; L6 cells, 70 h + 2 h resazurin; mean ± absolute deviation
Description: Assays were performed in 96-well microtiter plates, each well containing 100 µl of RPMI 1640 medium supplemented with 1% L-glutamine (200 mM) and 10% fetal bovine serum, and 4000 L-6 cells (a primary cell line derived from rat skeletal myoblasts) ([Ahmed et al., 1994]). Serial drug dilutions of 11 three-fold dilution steps covering a range from 100 to 0.002 μg/ml were prepared 24 h post seeding L-6 cells. The plates were incubated for 70 h and inspected under an inverted microscope to assure growth of the controls and sterile conditions. 10 µl of resazurin was then added to each well and the plates incubated for another 2 h. Then the plates were read with a Spectramax Gemini XS microplate fluorometer (Molecular Devices Cooperation, Sunnyvale, CA, USA) using an excitation wavelength of 536 nm and an emission wavelength of 588 nm. The IC50 values were calculated by linear regression and four-parameter logistic regression from the sigmoidal dose inhibition curves using SoftmaxPro software (Molecular Devices Cooperation, Sunnyvale, CA, USA). Podophyllotoxin (Sigma P4405) was used as positive control. All assays were performed in two independent replicates at least. Activities of all compounds were expressed in µM using the formula: […]

[7] = Plasmodium falciparum, NF54, 72 h, NF54 drug sensitive strain, erythrocytic stages, 72 h, read-out: IC50 P. falciparum

| Compound | IC50 ([1]; NF54 drug sensitive strain, erythrocytic stages, 72 h, read-out: IC50 P. falciparum) [µM] | IC50 [1, 7] [µM] | IC50 [4] [µM] | IC50 [5] [µM] | Selectivity index (SI): IC50 in L6 cells divided by IC50 in P. falciparum [1] | IC50 at 96 h [2] [µM] | Selectivity index (SI): IC50 in L6 cells divided by IC50 in T. b. rhodesiense [3] | IC50 [3] [µM] | Selectivity index (SI): IC50 in L6 cells divided by IC50 in L. donovani axenic amastigotes [5] | IC50 at 70 h [6] [µM] | IC50 ([1]; Plasmodium falciparum, NF54, 72 h, read-out: IC50 P. falciparum, NF54 drug sensitive strain, erythrocytic stages, 72 h) [µM] | IC50 ([1]; read-out: IC50 P. falciparum, NF54 drug sensitive strain, erythrocytic stages, 72 h) [µM] |
| --- | --- | --- | --- | --- | --- | --- | --- | --- | --- | --- | --- | --- |
| CC(=O)O[C@H]1[C@H]2c3c(ccc4c(=O)cc(-c5ccccc5)oc34)O[C@H]2OC1(C)C [Compound 12, (-)-(3′′S,4′′R,5′′S)-Pseudosemiglabrin] | 16.3 ± 2.7 | ~20 | > 84.2 | 18.9 ± 2.6 | 4.8 | 145 ± 10.5 | 2.1 | 37.5 ± 6.1 | 4.1 | – | – | – |
| COc1cc(O)c2c(=O)c(OC)c(-c3ccc(OC)c(OC)c3)oc2c1 [Compound 3, Retusin] | – | 23.4 ± 3.8 | > 186 | 34.1 ± 4.7 | 9.2 | 173 | 2.6 | > 80 | 6.3 | 215 ± 4.7 | – | – |
| COc1cc(-c2oc3cc(O)cc(O)c3c(=O)c2O)ccc1O [Compound 11, Isorhamnetin] | – | – | > 210 | 21.7 ± 7.9 | 6.0 | > 199 | 5.0 | 25.9 ± 5.4 | 6.0 | 130 ± 58.7 | ~20 | 21.6 ± 0.7 |

Continued, in another order:

| IC50 ([1]; NF54 drug sensitive strain, erythrocytic stages, 72 h, read-out: IC50 P. falciparum) [µM] | IC50 [1, 7] [µM] | IC50 [4] [µM] | IC50 [5] [µM] | Compound | Selectivity index (SI): IC50 in L6 cells divided by IC50 in P. falciparum [1] | IC50 at 96 h [2] [µM] | Selectivity index (SI): IC50 in L6 cells divided by IC50 in T. b. rhodesiense [3] | IC50 [3] [µM] | Selectivity index (SI): IC50 in L6 cells divided by IC50 in L. donovani axenic amastigotes [5] | IC50 at 70 h [6] [µM] | IC50 ([1]; Plasmodium falciparum, NF54, 72 h, read-out: IC50 P. falciparum, NF54 drug sensitive strain, erythrocytic stages, 72 h) [µM] | IC50 ([1]; read-out: IC50 P. falciparum, NF54 drug sensitive strain, erythrocytic stages, 72 h) [µM] |
| --- | --- | --- | --- | --- | --- | --- | --- | --- | --- | --- | --- | --- |
| – | 53.1 ± 7.7 | > 115 | 20.8 ± 1.7 | O=c1c(O)c(-c2ccc(O)cc2)oc2cc(O)cc(O)c12 [Compound 13, Kaempferol] | 2.1 | 151 ± 18.8 | 3.1 | 36.4 ± 8.7 | 5.3 | – | – | – |
| – | – | 6.6 ± 0.3 | 0.5 ± 0.2 | CCCCCCCCCCCCCCCCOP(=O)([O-])OCC[N+](C)(C)C [Miltefosine, reference compound] | – | > 24.1 | – | – | – | – | – | – |
